Data published in the supplement of paper PMC10883282.
± gives the standard deviation of the averaged measurements.

How the values were obtained:
Test in all cases: relative viability vs DMSO control (72 h) (fraction); higher = more viable cells
SW872 = tested on: SW872
Outline: (§1)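 Plates held 72 h at 37 °C and 5% CO2 contained sarcoma cell lines seeded in 384-well format to reach 80–90% confluence, plus 2.5 µl of serially diluted compound added after 24 h. Source plate concentrations ran from 10 mM to 0.0002 mM, with 0.1% DMSO as vehicle and a 5 µM positive control. Percent growth from ATPLite readings, averaged over up to triplicate wells, gave relative viability. Values were rescaled with 1 as full and 0 as none.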

A204 = tested on: A204
Outline: as §1

SYO-1 = tested on: SYO-1
Outline: as §1

SK-ES-1 = tested on: SK-ES-1
Outline: as §1

SW982 = tested on: SW982
Outline: as §1

HS729 = tested on: HS729
Outline: as §1

KHOS-240S = tested on: KHOS-240S
Outline: as §1

SW1353 = tested on: SW1353
Outline: as §1

G401 = tested on: G401
Outline: as §1

SW684 = tested on: SW684
Outline: as §1

MES-SA = tested on: MES-SA
Outline: as §1

SK-LMS-1 = tested on: SK-LMS-1
Outline: as §1

Cc1[nH]c(/C=C2\C(=O)Nc3ccccc32)c(C)c1CCC(=O)O [Orantinib]
relative viability (SW872; 0.00017 µM): 1.1 ± 0.053 | relative viability (SW872; 0.00051 µM): 1.12 ± 0.083 | relative viability (SW872; 0.00152 µM): 1.09 ± 0.036 | relative viability (SW872; 0.00457 µM): 1.1 ± 0.06 | relative viability (SW872; 0.01372 µM): 1.09 ± 0.045 | relative viability (SW872; 0.04115 µM): 1.08 ± 0.03 | relative viability (SW872; 0.1235 µM): 1.06 ± 0.015 | relative viability (SW872; 0.3704 µM): 1.04 ± 0.024 | relative viability (SW872; 1.111 µM): 1.08 ± 0.03 | relative viability (SW872; 3.333 µM): 1.05 ± 0.037 | relative viability (SW872; 10 µM): 1.013 ± 0.0074 | relative viability (A204; 0.00017 µM): 1.07 ± 0.04 | relative viability (A204; 0.00051 µM): 1.12 ± 0.014 | relative viability (A204; 0.00152 µM): 1.12 ± 0.073 | relative viability (A204; 0.00457 µM): 1.09 ± 0.036 | relative viability (A204; 0.01372 µM): 1.14 ± 0.026 | relative viability (A204; 0.04115 µM): 1.086 ± 0.0063 | relative viability (A204; 0.1235 µM): 1.13 ± 0.068 | relative viability (A204; 0.3704 µM): 1.05 ± 0.043 | relative viability (A204; 1.111 µM): 1.03 ± 0.052 | relative viability (A204; 3.333 µM): 0.976 ± 0.019 | relative viability (A204; 10 µM): 0.881 ± 0.03 | relative viability (SYO-1; 0.00017 µM): 1.012 ± 0.0092 | relative viability (SYO-1; 0.00051 µM): 1.01 ± 0.044 | relative viability (SYO-1; 0.00152 µM): 1.02 ± 0.048 | relative viability (SYO-1; 0.00457 µM): 1.02 ± 0.035 | relative viability (SYO-1; 0.01372 µM): 1.01 ± 0.023 | relative viability (SYO-1; 0.04115 µM): 1.03 ± 0.038 | relative viability (SYO-1; 0.1235 µM): 0.997 ± 0.047 | relative viability (SYO-1; 0.3704 µM): 0.979 ± 0.063 | relative viability (SYO-1; 1.111 µM): 0.973 ± 0.043 | relative viability (SYO-1; 3.333 µM): 0.945 ± 0.071 | relative viability (SYO-1; 10 µM): 0.799 ± 0.038 | relative viability (SK-ES-1; 0.00017 µM): 1.05 ± 0.031 | relative viability (SK-ES-1; 0.00051 µM): 1.06 ± 0.03 | relative viability (SK-ES-1; 0.00152 µM): 1.06 ± 0.042 | relative viability (SK-ES-1; 0.00457 µM): 1.04 ± 0.044 | relative viability (SK-ES-1; 0.01372 µM): 1.04 ± 0.053 | relative viability (SK-ES-1; 0.04115 µM): 1.06 ± 0.089 | relative viability (SK-ES-1; 0.1235 µM): 1.02 ± 0.039 | relative viability (SK-ES-1; 0.3704 µM): 1.06 ± 0.065 | relative viability (SK-ES-1; 1.111 µM): 0.999 ± 0.067 | relative viability (SK-ES-1; 3.333 µM): 0.982 ± 0.058 | relative viability (SK-ES-1; 10 µM): 0.998 ± 0.025 | relative viability (SW982; 0.00017 µM): 1.06 ± 0.023 | relative viability (SW982; 0.00051 µM): 1.11 ± 0.038 | relative viability (SW982; 0.00152 µM): 1.1 ± 0.016 | relative viability (SW982; 0.00457 µM): 1.1 ± 0.045 | relative viability (SW982; 0.01372 µM): 1.09 ± 0.046 | relative viability (SW982; 0.04115 µM): 1.1 ± 0.028 | relative viability (SW982; 0.1235 µM): 1.08 ± 0.031 | relative viability (SW982; 0.3704 µM): 1.044 ± 0.0096 | relative viability (SW982; 1.111 µM): 1.01 ± 0.043 | relative viability (SW982; 3.333 µM): 0.935 ± 0.055 | relative viability (SW982; 10 µM): 0.931 ± 0.025 | relative viability (HS729; 0.00017 µM): 1.07 ± 0.053 | relative viability (HS729; 0.00051 µM): 1.09 ± 0.043 | relative viability (HS729; 0.00152 µM): 1.08 ± 0.058 | relative viability (HS729; 0.00457 µM): 1.06 ± 0.043 | relative viability (HS729; 0.01372 µM): 1.04 ± 0.072 | relative viability (HS729; 0.04115 µM): 1.04 ± 0.054 | relative viability (HS729; 0.1235 µM): 0.997 ± 0.057 | relative viability (HS729; 0.3704 µM): 0.966 ± 0.023 | relative viability (HS729; 1.111 µM): 0.923 ± 0.014 | relative viability (HS729; 3.333 µM): 0.923 ± 0.021 | relative viability (HS729; 10 µM): 0.889 ± 0.015 | relative viability (KHOS-240S; 0.00017 µM): 1.04 ± 0.025 | relative viability (KHOS-240S; 0.00051 µM): 1.07 ± 0.034 | relative viability (KHOS-240S; 0.00152 µM): 1.087 ± 0.0054 | relative viability (KHOS-240S; 0.00457 µM): 1.06 ± 0.055 | relative viability (KHOS-240S; 0.01372 µM): 1.05 ± 0.029 | relative viability (KHOS-240S; 0.04115 µM): 1.065 ± 0.01 | relative viability (KHOS-240S; 0.1235 µM): 1.08 ± 0.045 | relative viability (KHOS-240S; 0.3704 µM): 1.09 ± 0.024 | relative viability (KHOS-240S; 1.111 µM): 1.03 ± 0.021 | relative viability (KHOS-240S; 3.333 µM): 1.06 ± 0.028 | relative viability (KHOS-240S; 10 µM): 0.963 ± 0.012 | relative viability (SW1353; 0.00017 µM): 1.08 ± 0.017 | relative viability (SW1353; 0.00051 µM): 1.06 ± 0.038 | relative viability (SW1353; 0.00152 µM): 1.087 ± 0.006 | relative viability (SW1353; 0.00457 µM): 1.08 ± 0.019 | relative viability (SW1353; 0.01372 µM): 1.05 ± 0.012 | relative viability (SW1353; 0.04115 µM): 1.07 ± 0.035 | relative viability (SW1353; 0.1235 µM): 1.04 ± 0.019 | relative viability (SW1353; 0.3704 µM): 1.026 ± 0.0026 | relative viability (SW1353; 1.111 µM): 1 ± 0.014 | relative viability (SW1353; 3.333 µM): 0.963 ± 0.054 | relative viability (SW1353; 10 µM): 0.951 ± 0.061 | relative viability (G401; 0.00017 µM): 1.07 ± 0.049 | relative viability (G401; 0.00051 µM): 1.11 ± 0.044 | relative viability (G401; 0.00152 µM): 1.07 ± 0.023 | relative viability (G401; 0.00457 µM): 1.08 ± 0.035 | relative viability (G401; 0.01372 µM): 1.07 ± 0.032 | relative viability (G401; 0.04115 µM): 1.04 ± 0.016 | relative viability (G401; 0.1235 µM): 1.057 ± 0.0082 | relative viability (G401; 0.3704 µM): 1.06 ± 0.036 | relative viability (G401; 1.111 µM): 1.05 ± 0.026 | relative viability (G401; 3.333 µM): 1.058 ± 0.0054 | relative viability (G401; 10 µM): 0.966 ± 0.02 | relative viability (SW684; 0.00017 µM): 1.19 ± 0.053 | relative viability (SW684; 0.00051 µM): 1.19 ± 0.086 | relative viability (SW684; 0.00152 µM): 1.23 ± 0.043 | relative viability (SW684; 0.00457 µM): 1.23 ± 0.039 | relative viability (SW684; 0.01372 µM): 1.18 ± 0.078 | relative viability (SW684; 0.04115 µM): 1.18 ± 0.12 | relative viability (SW684; 0.1235 µM): 1.19 ± 0.091 | relative viability (SW684; 0.3704 µM): 1.16 ± 0.05 | relative viability (SW684; 1.111 µM): 1.12 ± 0.031 | relative viability (SW684; 3.333 µM): 1.05 ± 0.06 | relative viability (SW684; 10 µM): 0.967 ± 0.058 | relative viability (MES-SA; 0.00017 µM): 1 ± 0.035 | relative viability (MES-SA; 0.00051 µM): 0.989 ± 0.033 | relative viability (MES-SA; 0.00152 µM): 0.975 ± 0.013 | relative viability (MES-SA; 0.00457 µM): 0.968 ± 0.021 | relative viability (MES-SA; 0.01372 µM): 0.951 ± 0.042 | relative viability (MES-SA; 0.04115 µM): 0.948 ± 0.019 | relative viability (MES-SA; 0.1235 µM): 0.948 ± 0.032 | relative viability (MES-SA; 0.3704 µM): 0.953 ± 0.019 | relative viability (MES-SA; 1.111 µM): 0.941 ± 0.017 | relative viability (MES-SA; 3.333 µM): 0.941 ± 0.023 | relative viability (MES-SA; 10 µM): 0.93 ± 0.016 | relative viability (SK-LMS-1; 0.00017 µM): 1.06 ± 0.015 | relative viability (SK-LMS-1; 0.00051 µM): 1.072 ± 0.0029 | relative viability (SK-LMS-1; 0.00152 µM): 1.06 ± 0.034 | relative viability (SK-LMS-1; 0.00457 µM): 1.04 ± 0.036 | relative viability (SK-LMS-1; 0.01372 µM): 1.05 ± 0.027 | relative viability (SK-LMS-1; 0.04115 µM): 1.07 ± 0.055 | relative viability (SK-LMS-1; 0.1235 µM): 1.04 ± 0.033 | relative viability (SK-LMS-1; 0.3704 µM): 1.032 ± 0.0044 | relative viability (SK-LMS-1; 1.111 µM): 0.994 ± 0.032 | relative viability (SK-LMS-1; 3.333 µM): 0.971 ± 0.043 | relative viability (SK-LMS-1; 10 µM): 0.8874 ± 0.0061
